Data from patent publication US20250382556A1, “MODULATION OF THE BRANCHED-CHAIN METABOLITE CONTENT OF FRUITS AND VEGETABLES” (BOARD OF TRUSTEES OF MICHIGAN STATE UNIVERSITY, priority 2024, published 2025).

System: apple peel
Assay: Free amino acid content of apple peel via UPLC-MS/MS after AHAS inhibitor treatment
Type: in vivo, Malus x domestica Borkh.
Parameters: key to free asparagine content compared to control / free aspartate content compared to control / free cysteine content compared to control / free glutamate content compared to control / free glutamine content compared to control / free glycine content compared to control / free histidine content compared to control / free lysine content compared to control / free methionine content compared to control / free phenylalanine content compared to control / free serine content compared to control / free threonine content compared to control / free tryptophan content compared to control / free tyrosine content compared to control / free valine content compared to control / total free amino acid content compared to control / free alanine content compared to control / free arginine content compared to control: —: Dash indicates no significant difference between treatments
Settings: for free alanine content compared to control / free arginine content compared to control / free asparagine content compared to control / free aspartate content compared to control / free cysteine content compared to control / free glutamate content compared to control / free glutamine content compared to control / free glycine content compared to control / free histidine content compared to control / free isoleucine content compared to control / free leucine content compared to control / free lysine content compared to control / free methionine content compared to control / free phenylalanine content compared to control / free serine content compared to control / free threonine content compared to control / free tryptophan content compared to control / free tyrosine content compared to control / free valine content compared to control / total free amino acid content compared to control: 1 mM daily
Procedure: Whole apple fruit, freshly harvested and at an early stage of ripening (‘ripening’), were held at room temperature (22° C.) and rubbed daily with 3 mL of a freshly made 1mM solution of the inhibitor rimsulfuron (N-((4,6-dimethoxypyrimidin-2-yl)aminocarbonyl)-3-(ethylsulfonyl)-2-pyridinesulfonamide, made from DuPont MATRIX® SG, 25% w/w active ingredient; 0.1% Tween 20) or water solution containing 0.1% Tween 20 before preparation with further treatments. Flowering quince fruit were smaller than the apple fruit and had 2 mL of the control and treatment solutions applied daily at 22° C. ‘Gala’, ‘Empire’, and ‘Jonagold’ apple fruit were treated for four, nine, and seven days before further preparation, respectively. Flowering quince fruit were treated for six days before analysis. Headspace volatile emissions were monitored for three or four representative fruits during the incubation/treatment period to determine appropriate times for further treatments. During method testing, 1 mM solutions of the imidazolinone imazamox was also assessed with apple fruit (2-[4,5-dihydro-4-methyl-4-(1-methylethyl)-5-oxo-1H-imidazol-2-yl]-5-(methoxymethyl)-3-pyridinecarboxylic acid, made from RAPTOR®, 12.1% w/w active ingredient; 0.1% Tween 20).
After volatile analysis, apple peel disks, collected peel of flowering quince, and ‘Valery’ pulp section samples were held at −80° C. for further amino acid analysis.
Frozen samples were ground to a powder in liquid nitrogen-chilled mortar and pestles. About 500 mg of tissue was vortexed for 10 sec in 2 mL of room temperature (22° C.) extraction solution (1:1:1 water:acetonitrile:ethanol, v/v/v) spiked with 2 nmoles of U-^13C,^15N labeled amino acids (MilliporeSigma) as internal standards and heated for 15 min in a 65° C. water bath. Extracts were briefly chilled on ice before centrifugation at 4400×g for 15 min at 4° C. The supernatant was filtered by centrifugation (0.2 μm nylon centrifugal filter; Costar, Corning) at 21000×g for 5 min at room temperature. 10 μL of the filtrate was transferred to an autosampler vial and diluted 100-fold with 990 μL of 10.1 mM perfluorohexanoic acid (PFHA) spiked with […] of internal standard. Thus the final concentration of internal standard was ˜2 μM.
An amino acid standard series was prepared from a premade mixture (MilliporeSigma, AAS18) that contained equal molar amounts of cystine and all 20 proteinogenic amino acids save for tryptophan, asparagine, glutamine, and cysteine. An equal molar mixture of tryptophan, asparagine, glutamine, and cysteine was subsequently prepared. To avoid dilution errors or artefacts from differing buffers, these amino acid stocks were aliquoted and desiccated such that a five-part standard series ranging from 250 μM to 25 nM would be produced upon resuscitation with 10 μL of spiked extraction buffer and 990 μL spiked PFHA solution.
Samples and amino acids were held overnight at −20° C. before analysis. Amino acids were analyzed with a Xevo TQ-S Micro UPLC (H-Class)-MS/MS (Waters) at the Michigan State University Mass Spectrometry and Metabolomics Core. Conditions were as follows. HPLC column: Acquirt UPLC HSS T3, 2.1×100 mm, 1.7 μm particle size (Waters), with a 0.2 μm pre-column filter (Waters). Mobile phase: A) 10 mM PFHA in water, B) acetonitrile. LC gradient: linear gradient, slope setting=6, flow rate=0.3 mL·min^−1, step 1) 0 min, 100% A, 0% B, 2) 1 min, 100% A, 0% B, 3) 8 min, 35% A, 65% B, 4) 8.01 min, 10% A, 90% B, 5) 9 min, 10% A, 90% B, 6) 9.01 min, 100% A, 0% B, 7) 13 min, 100% A, 0% B. Column temp: 40° C. Autosampler temp: 10° C. Injection volume: 10 μL. Tune parameters: electrospray ionization, standard ESI probe, capillary voltage=+1.0 kV, source temp=120° C., desolvation temp=350° C., desolvation gas=800 L·hr^−1, cone gas=40 L·hr^−1. MS collection was split into three phases and were adjusted after checking the retention time of several samples; however proline was missed for apple and flowering quince samples. […]

[1] = ripening Empire apple peel, nine days
[2] = ripening Gala apple peel, four days
[3] = ripening Jonagold apple peel, seven days

CCS(=O)(=O)c1cccnc1S(=O)(=O)NC(=O)Nc1nc(OC)cc(OC)n1 [rimsulfuron, N-((4,6-dimethoxypyrimidin-2-yl)aminocarbonyl)-3-(ethylsulfonyl)-2-pyridinesulfonamide]
free alanine content compared to control [1]: — | free arginine content compared to control [1]: — | free asparagine content compared to control [1]: — | free aspartate content compared to control [1]: — | free cysteine content compared to control [1]: 261.5 ± 32.5% | free glutamate content compared to control [1]: — | free glutamine content compared to control [1]: — | free glycine content compared to control [1]: — | free histidine content compared to control [1]: — | free isoleucine content compared to control [1]: 3.3 ± 0.7% | free leucine content compared to control [1]: 422.8 ± 100.1% | free lysine content compared to control [1]: — | free methionine content compared to control [1]: 212.7 ± 26.8% | free phenylalanine content compared to control [1]: — | free serine content compared to control [1]: — | free threonine content compared to control [1]: — | free tryptophan content compared to control [1]: — | free tyrosine content compared to control [1]: — | free valine content compared to control [1]: — | total free amino acid content compared to control [1]: — | free alanine content compared to control [2]: 273.4 ± 27.4% | free arginine content compared to control [2]: — | free asparagine content compared to control [2]: — | free aspartate content compared to control [2]: 231.8 ± 18.0% | free cysteine content compared to control [2]: — | free glutamate content compared to control [2]: 146.3 ± 5.6% | free glutamine content compared to control [2]: 250.7 ± 33.5% | free glycine content compared to control [2]: — | free histidine content compared to control [2]: — | free isoleucine content compared to control [2]: 16.4 ± 6.3% | free leucine content compared to control [2]: 214.4 ± 42.2% | free lysine content compared to control [2]: — | free methionine content compared to control [2]: — | free phenylalanine content compared to control [2]: — | free serine content compared to control [2]: 300.1 ± 27.7% | free threonine content compared to control [2]: 182.3 ± 14.2% | free tryptophan content compared to control [2]: — | free tyrosine content compared to control [2]: — | free valine content compared to control [2]: — | total free amino acid content compared to control [2]: 191.5 ± 20.4% | valine following treatment (ripening Gala, Empire, Jonagold peels): unaffected | free alanine content compared to control [3]: — | free arginine content compared to control [3]: — | free asparagine content compared to control [3]: — | free aspartate content compared to control [3]: — | free cysteine content compared to control [3]: 410.6 ± 49.6% | free glutamate content compared to control [3]: — | free glutamine content compared to control [3]: — | free glycine content compared to control [3]: — | free histidine content compared to control [3]: — | free isoleucine content compared to control [3]: 4.1 ± 1.3% | free leucine content compared to control [3]: 393.2 ± 74.4% | free lysine content compared to control [3]: — | free methionine content compared to control [3]: 218.3 ± 31.0% | free phenylalanine content compared to control [3]: — | free serine content compared to control [3]: 191.9 ± 32.1% | free threonine content compared to control [3]: — | free tryptophan content compared to control [3]: — | free tyrosine content compared to control [3]: — | free valine content compared to control [3]: — | total free amino acid content compared to control [3]: — | reduction of isoleucine in the peels (ripening fruit of the three cultivars (Gala, Empire, Jonagold), on average): 92.1% | increase of leucine content (three ripening cultivars, on average): 3.4 fold
